Test results: patent US12291499B2, “Deuterated tryptamine derivatives and methods of use” (priority 2020, dated 2025)

Tests used:
[1] = system: rat liver microsomes (RLM); test: Metabolic stability in rat liver microsomes (RLM); settings: for RLM, %, class symbol (metabolized or not) / RLM, % (half-life as % vs. the related nondeuterated compound): RLM assay; for RLM, %, class symbol (metabolized or not): last time point 120 min; for RLM, % (half-life as % vs. the related nondeuterated compound): values in square brackets are within 10% (assay's accuracy), no deuteration effect
hrMAO-A = target: T1, hrMAO-A (Homo sapiens, UniProt P21397); test: Metabolic stability in the presence of hrMAO-A; format: in vitro ADME; settings: for MAO, % (half-life as % vs. the related nondeuterated compound) / MAO, %, class symbol (metabolized or not): MAO-A assay; for MAO, % (half-life as % vs. the related nondeuterated compound): values in square brackets are within 10% (assay's accuracy), no deuteration effect; for MAO, %, class symbol (metabolized or not): last time point 120 min
T1 construct: purchased XenoTech Lot #8213001
T1 sequence (P21397 1-527): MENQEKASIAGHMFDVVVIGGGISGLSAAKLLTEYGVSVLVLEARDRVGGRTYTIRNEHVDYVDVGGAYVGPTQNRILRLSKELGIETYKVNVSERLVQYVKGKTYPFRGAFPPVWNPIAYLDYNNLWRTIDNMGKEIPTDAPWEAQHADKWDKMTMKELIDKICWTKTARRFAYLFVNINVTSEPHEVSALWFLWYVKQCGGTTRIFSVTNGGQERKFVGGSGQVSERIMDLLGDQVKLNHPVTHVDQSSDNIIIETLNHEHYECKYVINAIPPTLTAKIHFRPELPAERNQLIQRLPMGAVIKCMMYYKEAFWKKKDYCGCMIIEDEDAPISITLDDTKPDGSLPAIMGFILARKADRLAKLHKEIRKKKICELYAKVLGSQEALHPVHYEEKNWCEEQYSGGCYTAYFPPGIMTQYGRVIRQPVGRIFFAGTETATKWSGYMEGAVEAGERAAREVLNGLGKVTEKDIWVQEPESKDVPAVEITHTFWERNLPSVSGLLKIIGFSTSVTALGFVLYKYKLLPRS
Procedure: The reaction mixture was prepared as described below. The co-dosed TAs were added into the reaction mixture at a final concentration of 1 microM each. The positive control, kynuramine (25 microM), was run simultaneously with the TAs in a separate reaction. The reaction mixture (without TAs or kynuramine) was equilibrated in a shaking water bath at 37° C. for 5 minutes. The reaction was initiated by the addition of the TAs or kynuramine, and the mixture was incubated in a shaking water bath at 37° C. Aliquots (100 microL) of the TA reaction mixture were withdrawn at 0, 5, 10, 20, 30, 60, and 120 minutes. Aliquots (100 microL) of the positive control reaction mixture were withdrawn at 0 and 30 minutes. TA and kynuramine samples were immediately combined with 100 microL of ice-cold 100% MeCN containing 0.1% formic acid and IS to terminate the reaction. The samples were then mixed and centrifuged to precipitate proteins. All TA samples were assayed by LC-HRAMS. The PARR (analyte to IS) at each time point was compared to the PARR at time 0 to determine the percent remaining at each time point. Reaction composition: hrMAO 0.02 mg/mL; Potassium Phosphate, pH 7.4 100 mM; Magnesium Chloride 5 mM; Test Articles (each) 1 microM.

[2] = PK studies in rats (cassette dosing, oral gavage or catheter; brain and plasma levels); format: in vivo, Wistar female rats; settings: % change vs. non-deuterated material; for Deuterium Kinetic Isotope Effect (% change) AUC / Deuterium Kinetic Isotope Effect (% change) T1/2: 5 mg/kg; for Deuterium Kinetic Isotope Effect (% change) BPR, 15 min: sacrificed at 15 min; for Deuterium Kinetic Isotope Effect (% change) BPR, 15 min / Deuterium Kinetic Isotope Effect (% change) BPR, 30 min: parent drug in brain and plasma; for Deuterium Kinetic Isotope Effect (% change) BPR, 30 min: sacrificed at 30 min
Procedure: The key PK parameters (presented as a % change vs. non-deuterated materials) are presented in Table 3 to include half-life (T1/2), area under the curve (AUC), bioavailability (F) and blood-to-plasma ration (BPR). Pharmacokinetics of the deuterated tryptamines was studied in rats. In a typical experiment, run as a cassette dosing, two groups of 5 Wistar female rats (200-250 g) with surgically inserted jugular vein catheter (Charles River, Andover, MA) were fasted for 12 h and then administered 5 mg/kg of the deuterated and 5 mg/kg of the related non-deuterated analog, by oral gavage or via a catheter for each group. At time points 0, 15, 30, 60 min, and 2, 4, 8, and 24 h, the resulting plasma was analyzed for the parent molecule using LC/MS spectroscopy. Two separate groups of 5 animals were used for determining blood-to-plasma ratio (BPR). Each group was sacrificed at time points 15 and 30 min, respectively, and the concentration of the parent drug was determined in the brain and plasma by LC/MS spectroscopy.

[3] = Table 5, d8 and d10 analogs, hrMAO-A

C=CCN(CC=C)CCc1c[nH]c2ccccc12
RLM, %, class symbol (metabolized or not) [1]: R

C=CCNCCc1c[nH]c2ccccc12
RLM, %, class symbol (metabolized or not) [1]: R

[2H]C([2H])(Cc1c[nH]c2ccccc12)NC([2H])([2H])C([2H])([2H])[2H]
MAO, % (half-life as % vs. the related nondeuterated compound) (hrMAO-A): 170%

[2H]C([2H])([2H])C([2H])([2H])NC([2H])([2H])C([2H])([2H])c1c[nH]c2cccc(O)c12
RLM, % (half-life as % vs. the related nondeuterated compound) [1]: [93] %

CCN(CC)CCc1c[nH]c2ccccc12
RLM, %, class symbol (metabolized or not) [1]: R

[2H]C([2H])(c1c[nH]c2ccc(OC)cc12)C([2H])([2H])N(CC)CC
RLM, % (half-life as % vs. the related nondeuterated compound) [1]: [95] %

CCN(CC)CCc1c[nH]c2ccc(OC)cc12
RLM, %, class symbol (metabolized or not) [1]: R

CCN(CC)CCc1c[nH]c2ccc(O)cc12
RLM, %, class symbol (metabolized or not) [1]: R

CCN(CC)CCc1c[nH]c2cccc(OC)c12
RLM, %, class symbol (metabolized or not) [1]: R

[2H]c1ccc2[nH]c([2H])c(CCN([2H])CC)c2c1O
RLM, %, class symbol (metabolized or not) [1]: R

[2H]C([2H])(NCC)C([2H])([2H])c1c[nH]c2ccccc12
MAO, % (half-life as % vs. the related nondeuterated compound) (hrMAO-A): 140%

[2H]C([2H])(NCC)C([2H])([2H])c1c[nH]c2cccc(O)c12
RLM, % (half-life as % vs. the related nondeuterated compound) [1]: [94] %

CCNCCc1c[nH]c2cccc(O)c12
RLM, %, class symbol (metabolized or not) [1]: R

[2H]C([2H])(c1c[nH]c2cccc(OC)c12)C([2H])([2H])N(C)C
RLM, % (half-life as % vs. the related nondeuterated compound) [1]: 190%

[2H]C([2H])(NC)C([2H])([2H])c1c[nH]c2cccc(O)c12
RLM, % (half-life as % vs. the related nondeuterated compound) [1]: 160%

CC(C)NCCc1c[nH]c2ccccc12
RLM, %, class symbol (metabolized or not) [1]: R

CC(C)NCCc1c[nH]c2cccc(O)c12
RLM, %, class symbol (metabolized or not) [1]: R

[2H]C([2H])(c1c[nH]c2cccc(O)c12)C([2H])([2H])N(C(C)C)C(C)C
RLM, % (half-life as % vs. the related nondeuterated compound) [1]: [97] %

CC(C)N(CCc1c[nH]c2cccc(O)c12)C(C)C
RLM, %, class symbol (metabolized or not) [1]: R

COc1ccc2[nH]cc(CCN(C)C)c2c1 [5-MeO-DMT, reference compound]
MAO, %, class symbol (metabolized or not) (hrMAO-A): R | RLM, %, class symbol (metabolized or not) [1]: R

[2H]C([2H])(Cc1c[nH]c2ccc(OC)cc12)N(C)C [5-MeO-DMT-α,α-d2]
Deuterium Kinetic Isotope Effect (% change) AUC [2]: 60 % change | Deuterium Kinetic Isotope Effect (% change) T1/2 [2]: 30 % change | Deuterium Kinetic Isotope Effect (% change) BPR, 15 min [2]: 120 % change | Deuterium Kinetic Isotope Effect (% change) BPR, 30 min [2]: 180 % change

[2H]C([2H])(Cc1c[nH]c2ccccc12)N(C)C [DMT-d2]
Half-life (hrMAO-A; Table 3, hrMAO-A): > 2 h | % Remaining of Initial 0 min (hrMAO-A; Table 3, hrMAO-A): 100% | % Remaining of Initial 60 min (hrMAO-A; Table 3, hrMAO-A, 60 min): 76.0% | % Remaining of Initial 0 min ([1]; Table 2, RLM): 100% | % Remaining of Initial 60 min ([1]; Table 2, RLM, 60 min): 32.0%

[2H]C([2H])(c1c[nH]c2ccccc12)C([2H])([2H])N(C)C [DMT-d4]
Half-life (hrMAO-A; Table 3, hrMAO-A): > 2 h | % Remaining of Initial 0 min (hrMAO-A; Table 3, hrMAO-A): 100% | % Remaining of Initial 0 min ([1]; Table 2, RLM): 100%

[2H]C([2H])([2H])N(C([2H])([2H])[2H])C([2H])([2H])C([2H])([2H])c1c[nH]c2ccccc12 [DMT-d10]
metabolic stability in the MAO-A enzymatic assay, in words (hrMAO-A; MAO-A enzymatic assay): superiority | Half-life (hrMAO-A; Table 3, hrMAO-A): > 2 h | % Remaining of Initial 0 min (hrMAO-A; Table 3, hrMAO-A): 100% | Half-life (hrMAO-A; [3]): > 2 h | % Remaining of Initial 0 min (hrMAO-A; [3]): 100.0% | % Remaining of Initial 5 min (hrMAO-A; Table 5, d8 and d10 analogs, hrMAO-A, 5 min): 99.0% | % Remaining of Initial 0 min ([1]; Table 2, RLM): 100% | % Remaining of Initial 0 min ([1]; Table 4, d8 and d10 analogs, RLM): 100% | % Remaining of Initial 10 min ([1]; Table 4, d8 and d10 analogs, RLM, 10 min): 56.0% | kinetic deuterium isotope effect / metabolic stability, in words ([1]; rat liver microsomes, vs. DMT): Further enhancement of metabolic stability

CN(C)CCc1c[nH]c2ccccc12 [DMT]
% Remaining of Initial 0 min (hrMAO-A; Table 3, hrMAO-A): 100% | % Remaining of Initial 0 min ([1]; Table 2, RLM): 100% | % Remaining of Initial 20 min ([1]; Table 2, RLM, 20 min): 41.0%

[2H]C([2H])(Cc1c[nH]c2cccc(O)c12)N(C)C [PI-α,α-d2]
Deuterium Kinetic Isotope Effect (% change) AUC [2]: 75 % change | Deuterium Kinetic Isotope Effect (% change) T1/2 [2]: 50 % change | Deuterium Kinetic Isotope Effect (% change) BPR, 15 min [2]: 100 % change | Deuterium Kinetic Isotope Effect (% change) BPR, 30 min [2]: 150 % change

CCNCCc1c[nH]c2ccccc12 [reference compound]
MAO, %, class symbol (metabolized or not) (hrMAO-A): R | RLM, %, class symbol (metabolized or not) [1]: R

CCN(C)CCc1c[nH]c2ccccc12 [reference compound]
MAO, %, class symbol (metabolized or not) (hrMAO-A): R | RLM, %, class symbol (metabolized or not) [1]: R

CCN(C)CCc1c[nH]c2ccc(OC)cc12 [reference compound]
MAO, %, class symbol (metabolized or not) (hrMAO-A): R | RLM, %, class symbol (metabolized or not) [1]: R

CCN(C)CCc1c[nH]c2ccc(O)cc12 [reference compound]
MAO, %, class symbol (metabolized or not) (hrMAO-A): R | RLM, %, class symbol (metabolized or not) [1]: R

CCN(C)CCc1c[nH]c2cccc(OC)c12 [reference compound]
MAO, %, class symbol (metabolized or not) (hrMAO-A): R | RLM, %, class symbol (metabolized or not) [1]: R

CN(C)CCc1c[nH]c2ccc(O)cc12 [reference compound]
MAO, %, class symbol (metabolized or not) (hrMAO-A): R | RLM, %, class symbol (metabolized or not) [1]: R

COc1cccc2[nH]cc(CCN(C)C)c12 [reference compound]
MAO, %, class symbol (metabolized or not) (hrMAO-A): R | RLM, %, class symbol (metabolized or not) [1]: R

CNCCc1c[nH]c2ccccc12 [reference compound]
MAO, %, class symbol (metabolized or not) (hrMAO-A): R | RLM, %, class symbol (metabolized or not) [1]: R

CNCCc1c[nH]c2cccc(O)c12 [reference compound]
MAO, %, class symbol (metabolized or not) (hrMAO-A): R | RLM, %, class symbol (metabolized or not) [1]: R
